In data set [1] the target is T1, Cannabinoid receptor 2 (Homo sapiens, UniProt P34972). The data set is described as follows: Displacement of [3H]CP-55940 from human CB2 receptor. (In general: In a radioligand displacement assay an active substance lowers the binding of a labelled ligand.)
In data set [2] the target is Cannabinoid receptor 2 (Mus musculus, UniProt P47936). The data set is described as follows: Displacement of [3H]CP-55940 from mouse CB2 receptor.
Data set [3] concerns the target T2, Cannabinoid receptor 1 (Homo sapiens, UniProt P21554). Briefly: Displacement of [3H]CP-55940 from human CB1 receptor.
In data set [4] the target is T2, Cannabinoid receptor 1. Briefly: Agonist activity at human CB1 in CHO cells assessed as inhibition of cAMP production. In kind it is functional, cell-based. On the technique in general: Changes in cAMP serve as a functional read-out for many G protein-coupled receptors.
Data set [5] deals with Cannabinoid receptor 1 (Mus musculus, UniProt P47746). Briefly: Displacement of [3H]CP-55940 from mouse CB1 receptor.
Data set [6] has as its target T1, Cannabinoid receptor 2. Briefly: Agonist activity at human CB2 in CHO cells assessed as inhibition of cAMP production. The data set is classed as functional, cell-based.
Data set [7] relates to Mus musculus. Briefly: Analgesic activity in sc dosed ICR mouse right hind paw in presence of SR-144528 assessed as inhibition of formalin induced licking. The data set is classed as functional, organism-based.
A short description of data set [8]: AUC in rat at 30 mg/kg, po. The data set is classed as ADME, organism-based. Also noted: dose 30 mg/kg, route oral. As to conditions: plasma.
Data set [9] in a line: Bioavailability in rat at 30 mg/kg, po. In kind it is ADME, organism-based. As to conditions: in vivo.
The nature of data set [10]: Clearance in rat at 2 mg/kg, iv or 30 mg/kg, po. As to conditions: in vivo. The data set is classed as ADME, organism-based.
Data set [11] is described as follows: Half life in rat at 2 mg/kg, iv or 30 mg/kg, po. Conditions: in vivo. In kind it is ADME, organism-based.
Data set [12] has as its system Mus musculus. The data set is described as follows: Analgesic activity in sc dosed ICR mouse right hind paw of assessed as formalin induced licking. The data set is classed as functional, organism-based.

Activity calls are given as the source filed them. Bounds are passed on as bounds.

What is called Ki is the dissociation constant of the complex between target and ligand, obtained from inhibition or displacement. A low value points to tighter binding. Broadly, the IC50 is the midpoint of a concentration-inhibition curve. One may read the AUC as the area under the concentration-time curve, a measure of exposure. The bioavailability is dose-corrected exposure relative to a reference, in per cent. As a reminder, the half-life is the time needed for the level to fall by half in the phase considered.

Chain of Cannabinoid receptor 2 (Mus musculus, UniProt P47936) (P47936 whole entry): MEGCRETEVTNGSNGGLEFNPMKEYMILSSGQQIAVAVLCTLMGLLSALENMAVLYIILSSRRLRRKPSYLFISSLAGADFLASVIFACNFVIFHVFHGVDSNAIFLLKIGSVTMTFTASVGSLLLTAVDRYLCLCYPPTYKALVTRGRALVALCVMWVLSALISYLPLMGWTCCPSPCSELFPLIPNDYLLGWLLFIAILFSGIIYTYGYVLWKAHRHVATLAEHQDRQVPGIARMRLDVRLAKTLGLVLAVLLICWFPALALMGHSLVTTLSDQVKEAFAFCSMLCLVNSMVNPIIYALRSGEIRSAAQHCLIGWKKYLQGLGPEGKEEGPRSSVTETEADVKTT
T2 sequence (P21554 whole entry): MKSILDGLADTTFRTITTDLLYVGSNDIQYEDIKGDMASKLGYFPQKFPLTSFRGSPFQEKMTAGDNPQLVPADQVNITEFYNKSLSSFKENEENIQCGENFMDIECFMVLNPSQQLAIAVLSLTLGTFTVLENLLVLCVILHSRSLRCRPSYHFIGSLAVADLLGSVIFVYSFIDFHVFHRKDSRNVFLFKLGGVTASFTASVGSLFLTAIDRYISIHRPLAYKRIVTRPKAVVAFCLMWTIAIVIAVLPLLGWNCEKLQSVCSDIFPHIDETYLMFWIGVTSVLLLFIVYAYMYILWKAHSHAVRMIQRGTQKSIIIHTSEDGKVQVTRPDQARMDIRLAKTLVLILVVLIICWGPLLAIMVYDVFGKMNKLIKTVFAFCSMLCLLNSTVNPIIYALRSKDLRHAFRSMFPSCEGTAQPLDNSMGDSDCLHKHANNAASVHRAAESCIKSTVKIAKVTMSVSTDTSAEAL
T1 sequence (P34972 whole entry): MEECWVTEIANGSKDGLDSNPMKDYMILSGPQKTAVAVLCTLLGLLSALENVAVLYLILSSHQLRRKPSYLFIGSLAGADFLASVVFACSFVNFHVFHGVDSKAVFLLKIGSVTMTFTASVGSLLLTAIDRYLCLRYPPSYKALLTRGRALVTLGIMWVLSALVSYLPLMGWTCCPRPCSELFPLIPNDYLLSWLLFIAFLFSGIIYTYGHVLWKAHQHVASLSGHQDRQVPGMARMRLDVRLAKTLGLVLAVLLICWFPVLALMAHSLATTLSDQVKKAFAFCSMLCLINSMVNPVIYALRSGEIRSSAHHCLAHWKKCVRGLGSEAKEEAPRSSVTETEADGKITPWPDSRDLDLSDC
Chain of Cannabinoid receptor 1 (Mus musculus, UniProt P47746) (P47746 whole entry): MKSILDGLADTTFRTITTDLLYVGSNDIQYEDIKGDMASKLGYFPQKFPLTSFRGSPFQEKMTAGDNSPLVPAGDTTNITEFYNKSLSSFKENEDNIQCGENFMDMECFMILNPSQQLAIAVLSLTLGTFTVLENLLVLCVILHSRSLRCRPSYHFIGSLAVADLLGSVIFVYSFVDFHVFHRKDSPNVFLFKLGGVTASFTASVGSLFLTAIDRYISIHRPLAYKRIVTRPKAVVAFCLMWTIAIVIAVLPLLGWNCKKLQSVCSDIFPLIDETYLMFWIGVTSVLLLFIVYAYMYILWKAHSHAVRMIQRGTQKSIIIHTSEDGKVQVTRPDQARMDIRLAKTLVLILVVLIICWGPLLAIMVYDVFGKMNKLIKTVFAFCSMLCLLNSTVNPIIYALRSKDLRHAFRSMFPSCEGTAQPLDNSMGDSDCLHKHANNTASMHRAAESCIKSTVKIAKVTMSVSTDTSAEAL

`CCN1CC(C)(C)CS/C1=N\c1ccccc1C(C)C` returned a Ki on Cannabinoid receptor 2 [1] of 4880 nM. That is a single-digit micromolar value.
Still for that read-out and setting: to `CSC(=S)N1CC(C)(C)CS/C1=N\c1ccc(C(C)C)cc1` belongs 22 nM; to `CCc1ccccc1/N=C1\SCC(C)(C)CN1C(=S)SC`, 54 nM.
On the same count and under the same terms, to `CCSC(=S)N1CC(C)(C)CS/C1=N\c1ccccc1C(C)C` belongs 35 nM; to `CCCSC(=S)N1CC(C)(C)CS/C1=N\c1ccccc1C(C)C`, 119 nM; to `CCC(=O)N1CC(C)(C)CS/C1=N\c1ccccc1C(C)C`, 2090 nM.
As to `CC(C)c1ccccc1/N=C1\SCC(C)(C)CN1Cc1ccccc1`, the affinity at Cannabinoid receptor 2 [1], expressed as Ki, was 1360 nM.
On the same count and under the same terms, to `CSC(=S)N1CCCS/C1=N\c1ccccc1C(C)C` belongs 1580 nM; to `CSC(=S)N1CCC(C)S/C1=N\c1ccccc1C(C)C` (stereo unspecified), more than 5000 nM; to `CCCc1ccccc1/N=C1\SCC(C)(C)CN1C(=S)SC`, 57 nM.
Still for that read-out and setting: under `CSC(=S)N1CC(C)(C)CS/C1=N\c1ccccc1F` stands 252 nM; under `CCNC(=S)N1CC(C)(C)CS/C1=N\c1ccccc1C(C)C`, more than 5000 nM; under `CSC(=S)N1CC(C)CS/C1=N\c1ccccc1C(C)C` (stereo unspecified), 98 nM.
Still for that read-out and setting: under `CCNC(=O)N1CC(C)(C)CS/C1=N\c1ccccc1C(C)C` stands more than 5000 nM.
`CSC(=S)N1CC(C)(C)CS/C1=N\c1ccccc1Br` yielded a Ki on Cannabinoid receptor 2 [1] of 371 nM.
On the same count and under the same terms, to `CCSC(=O)N1CC(C)(C)CS/C1=N\c1ccccc1C(C)C` belongs 48 nM.
In turn, `CCOC(=S)N1CC(C)(C)CS/C1=N\c1ccccc1C(C)C` yielded a Ki on Cannabinoid receptor 2 [1] of 230 nM. This Ki is about 4.8-fold higher than that of the molecule before.
Still for that read-out and setting: to `CCCN1CC(C)(C)CS/C1=N\c1ccccc1C(C)C` belongs 915 nM; to `CSC(=S)N1CC(C)(C)CS/C1=N\c1ccccc1-c1ccccc1`, 989 nM; to `CCOc1ccccc1/N=C1\SCC(C)(C)CN1C(=S)SC`, 84 nM.
`CSC(=S)N1CC(C)(C)CS/C1=N\c1cccc(C(C)C)c1` returned a Ki at Cannabinoid receptor 2 [1] of 33 nM.
The molecule `Cc1c(C(=O)c2cccc3ccccc23)c2cccc3c2n1[C@H](CN1CCOCC1)CO3` [WIN-552122] registered a Ki at Cannabinoid receptor 2 [2] of 6 nM.
`CC(C)c1ccccc1/N=C1/NCC(C)(C)CS1` gave a Ki on Cannabinoid receptor 2 [1] of more than 5000 nM.
With `CSC(=S)N1CC(C)(C)CS/C1=N\c1ccccc1C(F)(F)F`, on Cannabinoid receptor 2 [1], the Ki came out at 141 nM. This counts as sub-micromolar.
On the same count and under the same terms, under `CSC(=S)N1CC(C)(C)CS/C1=N\c1c(C)cccc1C` stands more than 5000 nM.
The same measure, in the same setting: to `CSC(=S)N1CC(C)(C)CS/C1=N\c1ccccc1Oc1ccccc1` belongs 2920 nM; to `CSC(=S)N1/C(=N/c2ccccc2C(C)C)SCCC1C` (stereo unspecified), more than 5000 nM.
`CSC(=S)N1CC(C)(C)CS/C1=N\c1ccccc1C(C)C`: the Ki on Cannabinoid receptor 1 [3] is more than 5000 nM; at Cannabinoid receptor 1 [5], 2020 nM; at Cannabinoid receptor 2 [1], 9 nM; at Cannabinoid receptor 2 [2], 9 nM. Also, the IC50 at Cannabinoid receptor 1 [4] was more than 5000 nM; on Cannabinoid receptor 2 [6], 6.1 nM. Besides, the result in the data set with Mus musculus [7] was inactive. Further, the AUC in data set [8] was determined as 1100 ng·h/mL. In [9], the bioavailability is 18%. Moreover, the clearance in [10] was 83.3 mL/min/kg. In [11], this molecule had a half-life of 36 min. Besides, in the data set with Mus musculus [12], the result was Active.
Molecule `CSC(=S)N1CC(C)(C)CS/C1=N\c1ccccc1C(C)(C)C` showed a Ki at Cannabinoid receptor 2 [1] of 313 nM.
On the same count and under the same terms, under `CSC(=S)N1CC(C)(C)CS/C1=N\c1ccccc1C` stands 202 nM.
Take `CCOC(=O)N1CC(C)(C)CS/C1=N\c1ccccc1C(C)C`: the Ki at Cannabinoid receptor 1 [3] is more than 5000 nM; on Cannabinoid receptor 1 [5], more than 5000 nM; at Cannabinoid receptor 2 [1], 428 nM; on Cannabinoid receptor 2 [2] it was 187 nM. The concentration for half-maximal inhibition (IC50) on Cannabinoid receptor 1 [4] was more than 5000 nM; at Cannabinoid receptor 2 [6], 322 nM.
As to `CSC(=S)N1CC(C)(C)CS/C1=N\c1ccccc1`, the Ki on Cannabinoid receptor 2 [1] came out at 316 nM.
Same read-out and setting: under `CSC(=S)N1CC(C)(C)CS/C1=N\c1ccccc1Cl` stands 722 nM; under `CC(C)SC(=S)N1CC(C)(C)CS/C1=N\c1ccccc1C(C)C`, 275 nM.
Same read-out and setting: to `COc1ccccc1/N=C1\SCC(C)(C)CN1C(=S)SC` belongs 18 nM.

The values above are taken from ChEMBL document CHEMBL1140004, “2-Arylimino-5,6-dihydro-4H-1,3-thiazines as a new class of cannabinoid receptor agonists. Part 1: discovery of CB2 receptor selective compounds” (Bioorg Med Chem Lett, 2007).
